Consider one compound from paper PMC10634346 (Cancer Research Communications, 2023).

Data set [1] deals with RNA polymerase II Ser2 phosphorylation (p-Ser2) in SU-DHL-4 cells. In words: In vitro washout, p-Ser2 Western blot, SU-DHL-4. It counts as cell-based, human. The following applies: 4-hour treatment then washout. As to the method:
(§1) Evaluation of the pharmacodynamic extent and duration of CDK9 inhibition were performed in vitro using the human DLBCL cell lines SU-DHL-4 and SU-DHL-10, harboring MYC amplification and MYC overexpression with P57T mutation, respectively. Cells were seeded 18 hours prior to treatment for 4 hours with one of three CDK9 inhibitors, enitociclib (0.25 and1 µmol/L), atuveciclib (1 µmol/L) or KB-0742 (1 µmol/L), cells were washed, and incubation continued until 48 hours posttreatment. Samples were collected before treatment (−4), immediately after treatment (0), and at 1, 2, 4, 8, 12, 16, 24, and 48 hours after washout for RNA sequencing (RNA-seq), qPCR, and Western blotting analyses.
The levels of p-Ser2, p-Ser5 and total RNA polymerase II, Myc, Mcl-1, cleaved PARP (cPARP), and cleaved Caspase 3 were assessed by Western blotting and quantified near-infrared detection and background corrected quantification of fluorescence intensity on an Odyssey Imaging System with IRDye secondary antibodies (LI-COR Biosciences). For quantification, the protein levels were normalized to GAPDH or HSP90, expressed as a ratio to DMSO or vehicle control at matched timepoints. The normalized relative protein levels of p-Ser2 were used for a treatment effect comparison by performing an ANOVA using PROC MIXED in SAS. The ANOVA model included treatment, timepoints and their interactions as fixed effects. The least square means (LSM), differences between the LSMs and associated P values were generated. The following primary antibodies were used: Rpb1 NTD (D8L4Y) rabbit antibody [Cell Signaling Technology (CST), #14958], anti-RNA polymerase II subunit B1 (phospho CTD Ser-2, clone 3E10) rat antibody (Merck, 04-1571-I), recombinant anti-c-MYC rabbit antibody (Y69; Abcam, #ab32072), MCL1 (D5V5L) rabbit antibody (CST, #39224), cleaved-PARP (Asp214) (E2T4K) mouse antibody (CST, #32563), HSP90 (C45G5) rabbit antibody (CST, #4877), and GAPDH mouse antibody (Zytomed Systems, #ZYT-RGM2-6C5).
Background: Immunoblotting shows a protein as a band on a membrane.

Data set [2] has as its system MYC mRNA in SU-DHL-10 cells. In words: In vitro washout, MYC mRNA qPCR, SU-DHL-10. It counts as cell-based, human. The settings on record: 4 h treatment then washout, for 16 to 48 hours after treatment. On the procedure:
(§2) Evaluation of the pharmacodynamic extent and duration of CDK9 inhibition were performed in vitro using the human DLBCL cell lines SU-DHL-4 and SU-DHL-10, harboring MYC amplification and MYC overexpression with P57T mutation, respectively. Cells were seeded 18 hours prior to treatment for 4 hours with one of three CDK9 inhibitors, enitociclib (0.25 and1 µmol/L), atuveciclib (1 µmol/L) or KB-0742 (1 µmol/L), cells were washed, and incubation continued until 48 hours posttreatment. Samples were collected before treatment (−4), immediately after treatment (0), and at 1, 2, 4, 8, 12, 16, 24, and 48 hours after washout for RNA sequencing (RNA-seq), qPCR, and Western blotting analyses. Total RNA was extracted from blood of patients and cell lines using RNeasy Plus Mini Kit (QIAGEN, #74136) and cDNA prepared with the Maxima First Strand cDNA Synthesis Kit for RT-PCR (Thermo Fisher Scientific, K1642) according to manufacturer's instructions. The integrity of purified total RNA was evaluated using an Agilent 2100 Bioanalyzer system and RNA 6000 Nano Kit (Agilent, #5067-1511). Differential gene expression analysis was performed (Fios Genomics) from RNA-seq data (Discovery Life Sciences). MYC and MCL1 mRNA levels were measured by qPCR in vitro and in vivo, using a Taqman qPCR system (Thermo Fisher Scientific), TaqMan Fast Universal PCR Master Mix (2X) no AmpErase (#4352042) and TaqMan probes for MYC (Hs00153408_m1) and MCL1 (Hs03043899_m1). RNA-seq data were analyzed using DESeq2 ([35]).
In general terms: In qPCR the cycle at which signal appears reflects the starting amount.

Data set [3] concerns MYC and MCL1 mRNA in SU-DHL-4 cells. Nature of the data set: In vitro washout, MYC and MCL1 mRNA qPCR, SU-DHL-4. It counts as cell-based, human. The settings on record: 1 µmol/L, 4 h treatment then washout. On the procedure: as §2, with “Differential gene expression analysis was performed (Fios Genomics) from RNA-seq data (Discovery Life Sciences).” left out
The subject of data set [4] is Myc and Mcl-1 protein in SU-DHL-10 cells. Nature of the data set: In vitro washout, Myc and Mcl-1 protein Western blot, SU-DHL-10. Format: cell-based, human. The following applies: 1 µmol/L, 4 h treatment then washout. As to the method:
as §1
(§3) The levels of p-Ser2, p-Ser5 and total RNA polymerase II, Myc, Mcl-1, cleaved PARP (cPARP), and cleaved Caspase 3 were assessed by Western blotting and quantified near-infrared detection and background corrected quantification of fluorescence intensity on an Odyssey Imaging System with IRDye secondary antibodies (LI-COR Biosciences). For quantification, the protein levels were normalized to GAPDH or HSP90, expressed as a ratio to DMSO or vehicle control at matched timepoints. The normalized relative protein levels of p-Ser2 were used for a treatment effect comparison by performing an ANOVA using PROC MIXED in SAS. The ANOVA model included treatment, timepoints and their interactions as fixed effects. […]

Data set [5] relates to Myc and Mcl-1 protein in SU-DHL-4 cells. Nature of the data set: In vitro washout, Myc and Mcl-1 protein Western blot, SU-DHL-4. The following applies: 0.25 µmol/L enitociclib, atuveciclib (1 µmol/L). It counts as cell-based, human. On the procedure: as §1, §3
Data set [6] in a line: Clinical pharmacokinetics, plasma LC/MS-MS (NCT02635672). It counts as in vivo, human. The settings on record: for Cmax / half-life: human, plasma. On the procedure: Fifteen patients with refractory or relapsed DH-DLBCL or other MYC+ NHL were treated with enitociclib (30 mg, 21-day cycle, once weekly x3) as a 30-minute intravenous infusion on study days 1, 8, and 15 (NCT02635672). Longitudinal gene expression levels were analyzed by RNA-seq, and enitociclib plasma concentrations were measured using LC/MS-MS. The clinical study protocol was approved by the Institutional Review Board of participating institutions and complied with the Declaration of Helsinki, current Good Clinical Practice guidelines, and local laws and regulations. Written informed consent was provided by all participants prior to the initiation of any study-specific procedure.
All pharmacokinetic parameters were calculated by noncompartmental methods as described previously ([36]) using WinNonlin v5.3 (Certara LP). Pharmacokinetic/pharmacodynamic modeling was performed using SAAM II v2.3.2 (The Epsilon Group). Pooled pharmacokinetic data from all patients [n = 15 for single dose, cycle 1 day 1 (C1D1) and n = 11 for multiple doses, cycle 1 day 15 (C1D15)] were characterized using a one-compartment model with intravenous dosing. Subsequently, the pharmacokinetic/pharmacodynamic relationship of enitociclib plasma concentrations to MCL1 and MYC mRNA change was characterized using an indirect response model ([37]) on pooled biomarker data where enitociclib concentrations inhibit the formation of MCL1 or MYC mRNA as described by the following equation: […]

A short description of data set [7]: Fraction unbound (fu) used for patient unbound Cmax. Format: in vitro ADME. The settings on record: human, plasma; patients.
Data set [8] can be described thus: Clinical pharmacokinetics, plasma LC/MS-MS (NCT02635672). Format: in vivo, human. The settings on record: subject 3, dose lowered from 30 to 22.5 mg, not included in average.

Where two headings read alike, the source gives them in different places.

For orientation: fraction unbound means the share of the substance not bound to proteins or other matrix. A word on the Tmax: it is the time at which the peak concentration occurs. Regarding `COc1cc(F)ccc1-c1cc(Nc2cc(CS(C)(=N)=O)ccn2)ncc1F` (stereo not drawn) [enitociclib], the “decrease of p-Ser2 levels” value in data set [1] (0.25 µmol/L) is listed as 50%. The “duration of p-Ser2 decrease” value is “up to 48 hours” in data set [1] (0.25 µmol/L) and 48 h in data set [1] (1 µmol/L). Further, in data set [2], the “inhibition of MYC mRNA levels” value was “approximately 75%”. Also, the “MYC and MCL1 mRNA levels over the 48-hour time course (in words)” value in data set [3] is “durable depletion”. Besides, the “duration of sustained Myc and Mcl-1 protein depletion” value in data set [4] amounted to 48 h. Besides, in data set [5], the “sustained Myc and Mcl-1 protein depletion for 48 hours (in words)” value is on record as “this was achieved”. The Cmax was 592 ng/mL in data set [6] (intravenous, 22.5 mg, subject 3, dose lowered from 30 to 22.5 mg, not included in average, read-out: Multiple dose C max) and 1750 nM in data set [6] (iv, 30 mg, patients, 30 mg i.v. once weekly, read-out: Cmax). In addition, the half-life in data set [6] (intravenous, 22.5 mg, subject 3, dose lowered from 30 to 22.5 mg, not included in average, read-out: Multiple dose t1/2 (converted)) is 2.53 h; in data set [6] (intravenous, 30 mg, patients treated with multiple doses, read-out: mean t1/2 (converted)), 5.56 h. Moreover, the “unbound Cmax” value in data set [6] (patients, 30 mg i.v. once weekly, Cmax x fu) is 117 nM. In data set [7], this compound gave an unbound share (fraction unbound) of 0.0665. For the same compound, in data set [8] (human, plasma, intravenous, 22.5 mg, read-out: Multiple dose tmax), the Tmax turned out to be 0.483 h. In data set [8], the “Multiple dose AUC0-t” value is given as 1,670^b µg^ah/L.
